Read-outs that look alike come from different tables or passages of the source.
How the values were obtained:
XCR1 = target: T1, XCR1 (Homo sapiens, UniProt P46094); assay: Figure S2a opioid peptide screen on chemokine receptors; assay type: cell-based; set-up: dose or concentration left out as unconfirmed
T1 construct: expressed in transfected cells
T1 sequence (P46094 1-333): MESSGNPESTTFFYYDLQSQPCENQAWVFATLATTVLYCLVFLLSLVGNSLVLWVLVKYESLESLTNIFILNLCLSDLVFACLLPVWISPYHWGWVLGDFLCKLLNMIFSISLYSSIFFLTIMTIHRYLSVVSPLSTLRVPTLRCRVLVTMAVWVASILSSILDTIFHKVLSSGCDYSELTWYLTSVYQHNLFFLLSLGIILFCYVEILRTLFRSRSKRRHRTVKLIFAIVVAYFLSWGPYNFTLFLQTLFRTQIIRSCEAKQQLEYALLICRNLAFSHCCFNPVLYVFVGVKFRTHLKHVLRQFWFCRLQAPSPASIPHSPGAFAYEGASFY

CCR10 = target: T2, CCR10 (Homo sapiens, UniProt P46092); assay: as above; assay type: cell-based; set-up: dose or concentration left out as unconfirmed
T2 construct: expressed in transfected cells
T2 sequence (P46092 1-362): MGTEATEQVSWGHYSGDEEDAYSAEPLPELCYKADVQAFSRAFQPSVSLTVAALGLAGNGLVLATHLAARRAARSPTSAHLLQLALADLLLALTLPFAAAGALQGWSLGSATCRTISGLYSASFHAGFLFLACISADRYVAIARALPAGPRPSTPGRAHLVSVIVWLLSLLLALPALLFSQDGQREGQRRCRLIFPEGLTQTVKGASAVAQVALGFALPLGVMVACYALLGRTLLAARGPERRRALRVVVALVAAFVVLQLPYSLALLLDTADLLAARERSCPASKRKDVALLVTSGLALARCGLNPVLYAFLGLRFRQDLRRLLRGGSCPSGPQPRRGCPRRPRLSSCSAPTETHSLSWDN

CCR3 = target: T3, CCR3 (Homo sapiens, UniProt P51677); assay: as above; set-up: dose or concentration left out as unconfirmed; details: read-out: CCR3 activity, ctrl+ = 100, Figure S2a
T3 sequence (P51677 1-355): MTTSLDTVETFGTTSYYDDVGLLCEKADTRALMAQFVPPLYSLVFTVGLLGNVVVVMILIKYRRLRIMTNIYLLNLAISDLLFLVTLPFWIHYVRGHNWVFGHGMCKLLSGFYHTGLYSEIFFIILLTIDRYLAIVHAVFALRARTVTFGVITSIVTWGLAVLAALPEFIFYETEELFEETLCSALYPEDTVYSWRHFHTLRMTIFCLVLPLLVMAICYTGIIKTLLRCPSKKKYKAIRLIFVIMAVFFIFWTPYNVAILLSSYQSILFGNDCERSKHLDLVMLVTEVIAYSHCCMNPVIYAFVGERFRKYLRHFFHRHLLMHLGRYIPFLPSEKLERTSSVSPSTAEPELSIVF

ACKR = target: T4, ACKR (Homo sapiens, UniProt P25106); assay: Figure 6h, ACKR, DMSO vs Bafilomycin treatment; assay type: cell-based; details: n = 3 or 4 as in cell
T4 construct: expressed in transfected cells; host or cells: U87 cells (human glioblastoma)
T4 sequence (P25106 whole entry): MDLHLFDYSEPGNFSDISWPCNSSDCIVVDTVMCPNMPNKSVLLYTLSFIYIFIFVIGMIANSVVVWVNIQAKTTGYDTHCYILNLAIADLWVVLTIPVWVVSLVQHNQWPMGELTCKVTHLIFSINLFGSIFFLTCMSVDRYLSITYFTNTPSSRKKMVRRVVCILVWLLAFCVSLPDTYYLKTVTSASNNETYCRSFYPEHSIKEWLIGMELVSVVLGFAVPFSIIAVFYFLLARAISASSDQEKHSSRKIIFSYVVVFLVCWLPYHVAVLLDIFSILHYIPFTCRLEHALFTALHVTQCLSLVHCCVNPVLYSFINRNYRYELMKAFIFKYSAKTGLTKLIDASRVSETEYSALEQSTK

CXCR1 = target: T5, CXCR1 (Homo sapiens, UniProt P25024); assay: Figure S2a opioid peptide screen on chemokine receptors; assay type: cell-based; set-up: dose or concentration left out as unconfirmed
T5 construct: expressed in transfected cells
T5 sequence (P25024 1-350): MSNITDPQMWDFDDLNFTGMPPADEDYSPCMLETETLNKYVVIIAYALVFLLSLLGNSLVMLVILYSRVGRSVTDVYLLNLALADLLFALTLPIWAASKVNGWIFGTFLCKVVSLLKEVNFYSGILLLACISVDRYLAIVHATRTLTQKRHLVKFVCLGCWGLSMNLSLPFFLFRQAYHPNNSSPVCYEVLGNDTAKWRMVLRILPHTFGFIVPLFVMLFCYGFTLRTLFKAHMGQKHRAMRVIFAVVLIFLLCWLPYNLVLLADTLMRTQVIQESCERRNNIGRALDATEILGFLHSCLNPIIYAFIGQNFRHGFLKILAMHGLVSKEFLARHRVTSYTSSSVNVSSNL

KOR = KOR (Homo sapiens, UniProt P41145); assay: Figure 6h, KOR, DMSO vs Bafilomycin treatment; assay type: cell-based; set-up: expressed in transfected cells; host or cells: U87 (human glioblastoma); details: n = 3 or 4 as in cell
KOR, sequence (P41145 whole entry): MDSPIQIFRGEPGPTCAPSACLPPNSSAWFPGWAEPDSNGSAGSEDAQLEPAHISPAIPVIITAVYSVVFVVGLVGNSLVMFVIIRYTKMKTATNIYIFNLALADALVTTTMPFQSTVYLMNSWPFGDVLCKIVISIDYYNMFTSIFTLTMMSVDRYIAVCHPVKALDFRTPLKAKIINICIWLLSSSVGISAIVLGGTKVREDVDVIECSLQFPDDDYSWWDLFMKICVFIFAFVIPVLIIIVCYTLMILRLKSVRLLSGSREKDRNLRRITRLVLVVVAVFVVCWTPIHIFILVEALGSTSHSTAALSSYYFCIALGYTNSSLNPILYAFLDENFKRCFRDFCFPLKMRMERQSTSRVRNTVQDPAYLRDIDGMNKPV

[1] = 'DMSO vs Bafilomycin treatment'
[2] = first of two columns under 'DMSO vs Bafilomycin treatment' (presumably DMSO)

CC(C)C[C@H](NC(=O)[C@H](Cc1ccccc1)NC(=O)CNC(=O)CNC(=O)[C@@H](N)Cc1ccc(O)cc1)C(=O)N[C@@H](CCCN=C(N)N)C(=O)N[C@@H](CCCN=C(N)N)C(=O)N[C@@H](CCC(N)=O)C(=O)N[C@@H](Cc1ccccc1)C(=O)N[C@@H](CCCCN)C(=O)N[C@H](C(=O)N[C@H](C(=O)N[C@H](C(=O)O)[C@@H](C)O)C(C)C)C(C)C [Dynorphin B]
activation (XCR1; replicate 1, read-out: XCR1 activity, ctrl+ = 100): -1.79%
activation (XCR1; replicate 2, read-out: XCR1 activity, ctrl+ = 100): 0.791%
activation (XCR1; replicate 3, read-out: XCR1 activity, ctrl+ = 100): 9.32%
activation (CCR10; replicate 1, read-out: CCR10 activity, ctrl+ = 100): -1.41%
activation (CCR10; replicate 2, read-out: CCR10 activity, ctrl+ = 100): -7.38%
activation (CCR10; replicate 3, read-out: CCR10 activity, ctrl+ = 100): 5.94%
activation (CCR3; replicate 1): 22.6%
activation (CCR3; replicate 2): -7.56%
Mean ± SEM (Figure 6h, ACKR) (ACKR; [1]): 90,67 ± 2,557, n=3
Mean ± SEM (Figure 6h, ACKR) (ACKR; [2]): 114,2 ± 9,487, n=3
activation (CXCR1; replicate 1, read-out: CXCR1 activity, ctrl+ = 100): -0.474%
activation (CXCR1; replicate 2, read-out: CXCR1 activity, ctrl+ = 100): -0.947%
activation (CXCR1; replicate 3, read-out: CXCR1 activity, ctrl+ = 100): 0.71%
Mean ± SEM (Figure 6h, KOR) (KOR; [1]): 30,69 ± 2,71, n=3
Mean ± SEM (Figure 6h, KOR) (KOR; [2]): 28,51 ± 2,354, n=3

From PMC7305236, “The atypical chemokine receptor ACKR3/CXCR7 is a broad-spectrum scavenger for opioid peptides” (Nature Communications, 2020)
